Data on nine compounds can be found in US8436023B2, “Cyclohexyl-azetidinyl antagonists of CCR2” (Janssen Pharmaceutica N.V., priority 2010, dated 2013).

What is called IC50 is the concentration needed to halve the response being measured.

In the assay the target is T1, CCR2 (Homo sapiens, UniProt P41597).
T1 construct: host or cells: THP-1 human monocytic cells
T1 sequence (P41597 1-360 isoform P41597-2): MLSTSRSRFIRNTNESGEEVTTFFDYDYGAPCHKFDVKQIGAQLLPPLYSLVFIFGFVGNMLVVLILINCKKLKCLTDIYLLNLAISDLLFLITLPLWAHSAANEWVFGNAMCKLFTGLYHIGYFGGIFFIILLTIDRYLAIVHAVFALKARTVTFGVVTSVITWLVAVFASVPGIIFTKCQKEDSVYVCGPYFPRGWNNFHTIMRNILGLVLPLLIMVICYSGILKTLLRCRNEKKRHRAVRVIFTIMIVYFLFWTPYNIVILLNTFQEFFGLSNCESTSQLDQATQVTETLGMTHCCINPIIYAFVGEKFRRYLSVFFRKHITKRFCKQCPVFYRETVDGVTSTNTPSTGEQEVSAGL
The experiment in a line: MCP-1 Receptor Binding Assay in THP-1 Cells. Conditions: 0.5 nM 125I labeled MCP-1, 2 hours at 30° C., less polar isomer tested where stated, read-out: Inhibition of MCP-1 Binding IC50, CCR2 Binding. An outline of the steps: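 Whole THP-1 cells incubated 2 h at 30 °C with 0.5 nM 125I-MCP-1 and varying concentrations of test compound; bound radioactivity counted after filter harvesting. Where no IC50 obtained, % inhibition given at 25 μM.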
With `COc1cccc(C2(O)CCC(N3CC(NC(=O)CNc4nn(Cc5ccccc5)c5ccc(C(F)(F)F)cc45)C3)CC2)n1` (stereo not drawn) [Example 96, 2-(1-Benzyl-5-trifluoromethyl-1H-indazol-3-ylamino)-N-{1-[4-hydroxy-4-(6-methoxy-pyridin-2-yl)-cyclohexyl]-azetidin-3-yl}-acetamide], the concentration for half-maximal inhibition (IC50) turned out to be 270 nM. As for `CCOC(=O)C1CCC(N2CC(NC(=O)CNc3nn(Cc4ccccc4)c4ccc(C(F)(F)F)cc34)C2)CC1` (stereo not drawn) [Example 97, 4-{3-[2-(1-Benzyl-5-trifluoromethyl-1H-indazol-3-ylamino)-acetylamino]-azetidin-1-yl}-cyclohexane carboxylic acid ethyl ester], the 50% inhibitory concentration (IC50) worked out at 170 nM.

In the case of `CC(C)C1CCC(N2CC(NC(=O)CNc3nn(Cc4ccccc4)c4ccc(C(F)(F)F)cc34)C2)CC1` (stereo not drawn) [Example 98, 2-(1-Benzyl-5-trifluoromethyl-1H-indazol-3-ylamino)-N-[1-(4-isopropyl-cyclohexyl)-azetidin-3-yl]-acetamide], the half-inhibitory concentration (IC50) was 5900 nM. On to `CCOC(=O)C1CCC(N2CC(NC(=O)CNc3nn(S(C)(=O)=O)c4ccc(C(F)(F)F)cc34)C2)CC1` (stereo not drawn) [Example 99, 4-{3-[2-(1-Methanesulfonyl-5-trifluoromethyl-1H-indazol-3-ylamino)-acetylamino]-azetidin-1-yl}-cyclohexane carboxylic acid ethyl ester], for which the IC50 was determined as 230 nM. As for `COc1ccc(C2CCC(N3CC(NC(=O)CNc4nn(S(C)(=O)=O)c5ccc(C(F)(F)F)cc45)C3)CC2)cn1` (stereo not drawn) [Example 100, 2-(1-Methanesulfonyl-5-trifluoromethyl-1H-indazol-3-ylamino)-N-{1-[4-(6-methoxy-pyridin-3-yl)-cyclohexyl]-azetidin-3-yl}-acetamide], the concentration for half-maximal inhibition (IC50) is 3700 nM. For the compound `Cc1ccc(C2(O)CCC(N3CC(NC(=O)CNc4nn(C)c5ccc(OCC(F)(F)F)cc45)C3)CC2)cn1` (stereo not drawn) [Example 101], the IC50 came out at 1100 nM. With `COc1ccc(C2(O)CCC(N3CC(NC(=O)CNc4nn(C)c5ccc(C(F)(OC)C(F)(F)F)cc45)C3)CC2)cn1` (stereo not drawn) [Example 102, N-{1-[4-Hydroxy-4-(6-methoxy-pyridin-3-yl)-cyclohexyl]-azetidin-3-yl}-2-[1-methyl-5-(1,2,2,2-tetrafluoro-1-methoxy-ethyl)-1H-indazol-3-ylamino]-acetamide], the IC50 was determined as 33 nM.

As for `COC(F)(c1ccc2c(c1)c(NCC(=O)NC1CN(C3CCC(O)(c4ccc(C)nc4)CC3)C1)nn2C)C(F)(F)F` (stereo not drawn) [Example 103, N-{1-[4-Hydroxy-4-(6-methyl-pyridin-3-yl)-cyclohexyl]-azetidin-3-yl}-2-[1-methyl-5-(1,2,2,2-tetrafluoro-1-methoxy-ethyl)-1H-indazol-3-ylamino]-acetamide], the IC50 amounted to 22 nM. To `O=C(CNc1n[nH]c2ccc(C(F)(F)F)nc12)NC1CN([C@H]2CC[C@@](O)(c3cncs3)CC2)C1` [Example 104, N-(1-((1R,4R)-4-hydroxy-4-(thiazol-5-yl)cyclohexyl)azetidin-3-yl)-2-((5-(trifluoromethyl)-1H-pyrazolo[4,3-b]pyridin-3-yl)amino)acetamide] belongs 230 nM.
